Measurements published in patent US8013153B2, “Substituted pyrimidine kinase inhibitors” (Janssen Pharmaceutica, N.V., priority 2006, dated 2011).
pIC50: −log10 of the molar value.

How the values were obtained:
CDK1:Cyclin-B = target: T1, CDK1:Cyclin-B (Homo sapiens, UniProt P06493); experiment: CDK1 Screening Assay; type: biochemical
T1 construct: purchased New England Biolabs, Beverly, Mass; 6020; host or cells: insect cells

murine Aurora-A = target: T2, murine Aurora-A (Mus musculus, UniProt P97477); experiment: Aurora-A Screening Assay; type: biochemical
T2 construct: replaced with the full length protein encoding the murine Aurora-A; made in house; host or cells: sf9 insect cells
T2 sequence (P97477 1-395): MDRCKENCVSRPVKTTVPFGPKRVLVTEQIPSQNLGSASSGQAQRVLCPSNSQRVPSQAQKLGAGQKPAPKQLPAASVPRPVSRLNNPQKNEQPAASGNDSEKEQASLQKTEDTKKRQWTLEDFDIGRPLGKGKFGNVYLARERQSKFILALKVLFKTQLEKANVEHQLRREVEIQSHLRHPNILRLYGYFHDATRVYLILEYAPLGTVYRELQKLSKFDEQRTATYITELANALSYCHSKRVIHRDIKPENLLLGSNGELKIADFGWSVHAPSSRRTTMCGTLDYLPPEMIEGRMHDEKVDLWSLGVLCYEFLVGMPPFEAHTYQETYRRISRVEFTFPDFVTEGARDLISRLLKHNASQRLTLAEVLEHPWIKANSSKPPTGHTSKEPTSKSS

HER2 cytoplasmic domain = target: T3, HER2 cytoplasmic domain (Homo sapiens, UniProt P04626); experiment: HER2 Kinase Screening Assay; type: biochemical; settings: > means no observed 50% inhibition at the indicated test concentration; ~ means approximately 50% inhibition at that concentration
T3 construct: polyhistidine (N)

RET cytoplasmic domain = target: T4, RET cytoplasmic domain (Homo sapiens, UniProt P07949); experiment: RET Kinase Screening Assay; type: biochemical
T4 construct: the RET cytoplasmic domain consisting of the last 492 amino acids of the intracellular domain; histidine tag (N); made in house; host or cells: Hi5 insect cells
T4 sequence (P07949 658-1114 limits assumed): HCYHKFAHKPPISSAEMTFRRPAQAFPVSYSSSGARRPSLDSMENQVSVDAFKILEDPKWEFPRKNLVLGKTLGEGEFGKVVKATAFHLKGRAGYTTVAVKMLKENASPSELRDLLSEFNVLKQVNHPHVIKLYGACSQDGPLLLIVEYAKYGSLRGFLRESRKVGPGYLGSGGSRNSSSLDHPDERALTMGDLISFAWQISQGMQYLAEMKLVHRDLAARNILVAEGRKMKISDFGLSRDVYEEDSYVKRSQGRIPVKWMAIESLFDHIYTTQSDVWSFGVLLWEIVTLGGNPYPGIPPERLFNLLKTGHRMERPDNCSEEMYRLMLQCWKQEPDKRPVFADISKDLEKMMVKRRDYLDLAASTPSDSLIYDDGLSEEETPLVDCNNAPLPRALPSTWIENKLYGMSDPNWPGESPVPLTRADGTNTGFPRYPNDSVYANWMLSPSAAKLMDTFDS

[1] = system: HeLa cervical adenocarcinoma; experiment: Inhibition of in vitro cell proliferation (HeLa); type: cell-based, human; settings: Homo sapiens, 14C-thymidine incorporation;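 note: cells exposed to compound for 24 h, then labelled 24 h with methyl 14C-thymidine, with uptake into DNA counted by scintillation against DMSO-only control wells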
HCT-116 colon carcinoma = experiment: Inhibition of in vitro cell proliferation (HCT116); type: cell-based, human; settings: Homo sapiens, HCT-116, 14C-thymidine incorporation;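 note: cells exposed to compound for 24 h, then 14C-thymidine added for a further 24 h and its uptake into DNA counted by scintillation, DMSO-only wells as control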
A375 malignant melanoma = experiment: Inhibition of in vitro cell proliferation (A375); type: cell-based, human; settings: Homo sapiens, A-375, 14C-thymidine incorporation;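 note: cells plated for 24 h, given compound for 24 h, then labelled with 14C-thymidine for another 24 h, with DMSO-only wells as control and counts read by scintillation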
[2] = target: T5, rat VEGF-R2 kinase domain (Rattus norvegicus, UniProt O08775); experiment: VEGF-R2 Screening Assay; type: biochemical; settings: > means no observed 50% inhibition at the indicated test concentration; ~ means approximately 50% inhibition at that concentration; read-out: IC50 VEGF-R2
T5 construct: amino acids 786-1343 of the rat VEGF-R2 kinase domain; polyhistidine (N)
T5 sequence (O08775 786-1343): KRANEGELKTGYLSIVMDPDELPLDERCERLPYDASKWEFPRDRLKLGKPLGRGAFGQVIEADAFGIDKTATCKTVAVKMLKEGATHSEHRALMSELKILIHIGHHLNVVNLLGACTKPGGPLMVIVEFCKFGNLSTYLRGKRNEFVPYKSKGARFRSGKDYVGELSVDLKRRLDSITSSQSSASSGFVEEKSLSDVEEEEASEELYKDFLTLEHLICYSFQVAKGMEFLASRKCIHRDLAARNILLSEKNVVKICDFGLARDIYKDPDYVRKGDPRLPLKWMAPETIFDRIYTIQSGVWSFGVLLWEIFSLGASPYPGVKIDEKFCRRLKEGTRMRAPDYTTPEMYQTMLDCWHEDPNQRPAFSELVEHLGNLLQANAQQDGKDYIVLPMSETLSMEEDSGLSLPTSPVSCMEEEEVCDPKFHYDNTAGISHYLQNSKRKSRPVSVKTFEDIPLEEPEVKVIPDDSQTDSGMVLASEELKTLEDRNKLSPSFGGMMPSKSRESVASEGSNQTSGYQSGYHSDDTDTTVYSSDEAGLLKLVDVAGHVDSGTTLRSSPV

T3 sequence (P04626 676-1255 limits assumed): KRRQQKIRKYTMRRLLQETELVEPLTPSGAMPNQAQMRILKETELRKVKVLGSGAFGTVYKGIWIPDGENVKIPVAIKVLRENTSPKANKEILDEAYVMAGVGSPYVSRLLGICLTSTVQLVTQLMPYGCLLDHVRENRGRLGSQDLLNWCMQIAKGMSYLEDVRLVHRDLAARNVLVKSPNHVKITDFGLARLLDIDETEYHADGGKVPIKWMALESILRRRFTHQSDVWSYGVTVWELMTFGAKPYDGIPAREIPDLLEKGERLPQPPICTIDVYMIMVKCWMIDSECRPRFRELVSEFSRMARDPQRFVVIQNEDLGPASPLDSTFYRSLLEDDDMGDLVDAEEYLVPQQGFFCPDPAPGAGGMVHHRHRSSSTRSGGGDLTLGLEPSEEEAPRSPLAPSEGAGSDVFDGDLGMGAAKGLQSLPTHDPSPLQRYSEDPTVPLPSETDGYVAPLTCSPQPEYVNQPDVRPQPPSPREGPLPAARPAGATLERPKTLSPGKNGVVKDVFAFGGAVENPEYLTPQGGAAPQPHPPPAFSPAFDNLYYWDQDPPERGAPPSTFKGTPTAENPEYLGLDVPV
T1 sequence (P06493 whole entry): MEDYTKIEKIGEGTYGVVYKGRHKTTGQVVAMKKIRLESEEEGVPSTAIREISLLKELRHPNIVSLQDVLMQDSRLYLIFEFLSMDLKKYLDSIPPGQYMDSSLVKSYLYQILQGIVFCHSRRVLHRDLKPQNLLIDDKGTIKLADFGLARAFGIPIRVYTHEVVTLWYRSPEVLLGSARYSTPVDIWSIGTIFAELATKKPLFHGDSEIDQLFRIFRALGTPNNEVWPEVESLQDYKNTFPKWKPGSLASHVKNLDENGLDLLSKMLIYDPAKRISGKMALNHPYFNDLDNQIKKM
T1 sequence (P14635 whole entry partner): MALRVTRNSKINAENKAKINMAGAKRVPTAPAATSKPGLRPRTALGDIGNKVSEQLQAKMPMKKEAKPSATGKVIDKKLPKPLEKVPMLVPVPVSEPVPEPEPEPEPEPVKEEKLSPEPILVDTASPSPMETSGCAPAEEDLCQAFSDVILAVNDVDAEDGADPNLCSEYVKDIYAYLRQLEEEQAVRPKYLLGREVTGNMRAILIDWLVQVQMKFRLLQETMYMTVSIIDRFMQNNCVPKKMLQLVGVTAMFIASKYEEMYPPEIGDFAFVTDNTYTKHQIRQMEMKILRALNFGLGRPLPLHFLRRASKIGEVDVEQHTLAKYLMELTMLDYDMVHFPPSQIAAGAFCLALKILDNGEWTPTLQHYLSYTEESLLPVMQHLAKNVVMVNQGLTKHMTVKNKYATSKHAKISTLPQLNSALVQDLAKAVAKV

SMILES	pIC50 (CDK1:Cyclin-B)	pIC50 (murine Aurora-A)	pIC50 (HER2 cytoplasmic domain)	pIC50 (RET cytoplasmic domain)	IC50 [1] [µM]	IC50 (HCT-116 colon carcinoma) [µM]	IC50 (A375 malignant melanoma) [µM]	pIC50 [2]
CCCON=Cc1c(N)ncnc1Oc1ccc2[nH]c(C)cc2c1F [Cpd 34, 4-amino-6-(4-fluoro-2-methyl-1H-indol-5-yloxy)-pyrimidine-5-carbaldehyde O-propyl-oxime]	< 4.00	< 4.00	< 4.00	~5.00	0.04	0.03	0.028	–
Cc1cc2c(F)c(Oc3ncnc(N)c3C=NOCC3CCCCC3)ccc2[nH]1 [Cpd 35, 4-amino-6-(4-fluoro-2-methyl-1H-indol-5-yloxy)-pyrimidine-5-carbaldehyde O-cyclohexylmethyl-oxime]	< 4.00	< 4.00	< 4.00	< 4.00	22.7	16.1	4.92	–
Cc1cc2c(F)c(Oc3ncnc(N)c3C=NOCc3ccccc3)ccc2[nH]1 [Cpd 36, 4-amino-6-(4-fluoro-2-methyl-1H-indol-5-yloxy)-pyrimidine-5-carbaldehyde O-benzyl-oxime]	< 4.00	< 4.00	< 4.00	< 4.00	0.266	0.311	0.062	–
CCCCON=Cc1c(N)ncnc1Oc1ccc2[nH]c(C)cc2c1F [Cpd 37, 4-amino-6-(4-fluoro-2-methyl-1H-indol-5-yloxy)-pyrimidine-5-carbaldehyde O-butyl-oxime]	< 4.00	< 4.00	< 4.00	< 4.00	0.607	3	0.446	–
CON=Cc1c(N)ncnc1Oc1ccc2c(c1)cc(C)n2C(=O)NCCN(C)C [Cpd 41, 5-[6-amino-5-(methoxyimino-methyl)-pyrimidin-4-yloxy]-2-methyl-indole-1-carboxylic acid (2-dimethylamino-ethyl)-amide]	< 4.00	–	< 5.00	< 5.00	> 10	> 10	> 1	7.37
CNC(=O)n1c(C)cc2cc(Oc3ncnc(N)c3C=NOC)ccc21 [Cpd 49, 5-[6-amino-5-(methoxyimino-methyl)-pyrimidin-4-yloxy]-2-methyl-indole-1-carboxylic acid methylamide]	< 4.00	< 4.00	~4.00	~5.00	2.98	3.14	1.39	9.00
CNC(=O)Nc1ccc(Oc2ncnc(N)c2C=NOC)cc1Cl [Cpd 51, 1-{4-[6-amino-5-(methoxyimino-methyl)-pyrimidin-4-yloxy]-2-chloro-phenyl}-3-methyl-urea]	< 4.00	< 4.00	< 4.00	~6.00	3.75	4.21	4.09	7.60
CCNC(=O)Nc1ccc(Oc2ncnc(N)c2C=NOC)cc1C [Cpd 66, 1-{4-[6-amino-5-(methoxyimino-methyl)-pyrimidin-4-yloxy]-2-methyl-phenyl}-3-ethyl-urea]	< 4.00	< 4.00	< 4.00	< 5.00	> 100	> 100	> 100	6.74
CNC(=O)Nc1ccc(Oc2ncnc(N)c2C=NOC)cc1 [Cpd 68, 1-{4-[6-amino-5-(methoxyimino-methyl)-pyrimidin-4-yloxy]-phenyl}-3-methyl-urea]	< 4.00	< 5.00	< 4.00	< 5.00	> 10	> 10	> 10	6.63
CCNC(=O)Nc1ccc(Oc2ncnc(N)c2C=NOC)cc1 [Cpd 69, 1-{4-[6-amino-5-(methoxyimino-methyl)-pyrimidin-4-yloxy]-phenyl}-3-ethyl-urea]	< 4.00	< 5.00	< 4.00	< 5.00	> 10	> 10	> 10	6.85
